Results: BigSolDB 2.1

Fc1c(I)c(F)c(I)c(F)c1I
Conditions	solubility (mole fraction)
in 1,2-dichloroethane, 290.15 K	2.33e-05
in 1,2-dichloroethane, 295.15 K	4.22e-05
in 1,2-dichloroethane, 299.15 K	6.13e-05
in 1,2-dichloroethane, 302.15 K	8.17e-05
in 1,2-dichloroethane, 305.15 K	0.000106
in 1,2-dichloroethane, 308.15 K	0.000131
in 1,2-dichloroethane, 311.15 K	0.000153
in 1,2-dichloroethane, 314.15 K	0.000181
in 1,2-dichloroethane, 317.15 K	0.000207
in 1,2-dichloroethane, 320.15 K	0.000224
in 1,2-dichloroethane, 325.15 K	0.000242
in 1,2-dichloroethane, 330.15 K	0.000263
in 1,4-dioxane, 290.15 K	0.00028
in 1,4-dioxane, 295.15 K	0.000334
in 1,4-dioxane, 299.15 K	0.000387
in 1,4-dioxane, 302.15 K	0.000413
in 1,4-dioxane, 305.15 K	0.000456
in 1,4-dioxane, 308.15 K	0.000506
in 1,4-dioxane, 311.15 K	0.000553
in 1,4-dioxane, 314.15 K	0.000593
in 1,4-dioxane, 317.15 K	0.000641
in 1,4-dioxane, 320.15 K	0.000697
in 1,4-dioxane, 325.15 K	0.000773
in 1,4-dioxane, 330.15 K	0.00088
in THF, 290.25 K	0.00478
in THF, 295.45 K	0.00497
in THF, 299.85 K	0.00511
in THF, 305.15 K	0.00534
in THF, 310.25 K	0.00555
in THF, 315.35 K	0.00578
in THF, 320.15 K	0.00601
in THF, 326.15 K	0.0063
in THF, 330.35 K	0.00648
in acetone, 290.15 K	2.02e-05
in acetone, 295.15 K	3.22e-05
in acetone, 299.15 K	4.55e-05
in acetone, 302.15 K	5.89e-05
in acetone, 305.15 K	7.48e-05
in acetone, 308.15 K	9.01e-05
in acetone, 311.15 K	0.000107
in acetone, 314.15 K	0.000127
in acetone, 317.15 K	0.000144
in acetone, 320.15 K	0.000162
in acetone, 325.15 K	0.000182
in acetone, 330.15 K	0.000202
in acetonitrile, 290.35 K	0.00382
in acetonitrile, 295.85 K	0.00415
in acetonitrile, 301.55 K	0.00469
in acetonitrile, 306.95 K	0.00536
in acetonitrile, 310.15 K	0.00568
in acetonitrile, 316.95 K	0.00636
in acetonitrile, 321.55 K	0.00722
in acetonitrile, 327.35 K	0.00842
in acetonitrile, 332.15 K	0.00917
in ethanol, 290.15 K	0.00057
in ethanol, 295.15 K	0.000735
in ethanol, 299.15 K	0.000874
in ethanol, 302.15 K	0.000962
in ethanol, 305.15 K	0.00108
in ethanol, 308.15 K	0.00119
in ethanol, 311.15 K	0.00128
in ethanol, 314.15 K	0.00138
in ethanol, 317.15 K	0.00149
in ethanol, 320.15 K	0.0016
in ethanol, 325.15 K	0.00174
in ethanol, 330.15 K	0.00193
in ethyl acetate, 290.15 K	0.000485
in ethyl acetate, 295.15 K	0.000621
in ethyl acetate, 299.15 K	0.000756
in ethyl acetate, 302.15 K	0.00086
in ethyl acetate, 305.15 K	0.000976
in ethyl acetate, 308.15 K	0.00107
in ethyl acetate, 311.15 K	0.00118
in ethyl acetate, 314.15 K	0.00128
in ethyl acetate, 317.15 K	0.00136
in ethyl acetate, 320.15 K	0.00145
in ethyl acetate, 325.15 K	0.00155
in ethyl acetate, 330.15 K	0.00167
in isopropanol, 291.25 K	0.00214
in isopropanol, 296.35 K	0.00291
in isopropanol, 301.45 K	0.00369
in isopropanol, 306.45 K	0.00432
in isopropanol, 311.45 K	0.00523
in isopropanol, 316.55 K	0.00598
in isopropanol, 321.45 K	0.00681
in isopropanol, 326.85 K	0.00745
in isopropanol, 331.55 K	0.00802
in methanol, 290.15 K	2.24e-05
in methanol, 295.15 K	3.71e-05
in methanol, 299.15 K	5.15e-05
in methanol, 302.15 K	6.58e-05
in methanol, 305.15 K	8.12e-05
in methanol, 308.15 K	9.61e-05
in methanol, 311.15 K	0.00011
in methanol, 314.15 K	0.000121
in methanol, 317.15 K	0.000131
in methanol, 320.15 K	0.00014
in methanol, 325.15 K	0.00015
in methanol, 330.15 K	0.000154
in n-hexane, 289.25 K	0.0059
in n-hexane, 293.55 K	0.00643
in n-hexane, 298.85 K	0.00732
in n-hexane, 303.85 K	0.00818
in n-hexane, 308.95 K	0.00908
in n-hexane, 313.75 K	0.0101
in n-hexane, 318.55 K	0.0116
in n-hexane, 324.25 K	0.0134
in n-hexane, 329.35 K	0.0149
in n-propanol, 291.25 K	0.00216
in n-propanol, 296.35 K	0.00274
in n-propanol, 301.35 K	0.00325
in n-propanol, 306.35 K	0.00366
in n-propanol, 311.65 K	0.00417
in n-propanol, 316.55 K	0.00482
in n-propanol, 321.55 K	0.00531
in n-propanol, 326.45 K	0.00585
in n-propanol, 331.45 K	0.00643
in toluene, 290.15 K	0.000169
in toluene, 295.15 K	0.000217
in toluene, 299.15 K	0.000261
in toluene, 302.15 K	0.000294
in toluene, 305.15 K	0.000329
in toluene, 308.15 K	0.000368
in toluene, 311.15 K	0.000404
in toluene, 314.15 K	0.000444
in toluene, 317.15 K	0.000479
in toluene, 320.15 K	0.000515
in toluene, 325.15 K	0.000573
in toluene, 330.15 K	0.000623
